Experimental data from patent US20120214862A1, “MODULATION OF FACTOR 7 EXPRESSION” (ISIS Pharmaceuticals, Inc., priority 2009, published 2012).
In the oligonucleotide strings, read from the 5' end, every base follows the letter of its sugar. An asterisk marks phosphorothioate; unmarked linkages are phosphodiester. Other units and linkages are bracketed, terminal groups are in braces. A string of capitals states the bases alone. e = 2'-O-(2-methoxyethyl) (MOE); [5mC] = 5-methylcytosine; d = 2'-deoxy (DNA)

system: human Factor 7 mRNA; test: Antisense inhibition of human Factor 7 mRNA in HepB3 cells, lipofectin, 50 nM, real-time RT-PCR; format: cell-based; settings: Example 1; HepB3 cells, lipofectin, 50 nM, ~24 h, relative to untreated control cells
In short: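 Cells plated at 4,000 per well were transfected and harvested after approximately 24 hours of treatment. Transcript levels, measured with primer probe set RTS 2927, were normalised to total RNA by RIBOGREEN®. Values are percent inhibition relative to untreated control cells.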

Row | Substance | % Inhibition (human Factor 7 mRNA) [%]
1 | 407915 (antisense eG*eT*eT*eG*e[5mC]*dG*d[5mC]*dA*dG*d[5mC]*d[5mC]*d[5mC]*dT*dG*dG*e[5mC]*e[5mC]*e[5mC]*e[5mC]*eA) [compound 407915] | 83
2 | 407932 (antisense eG*eA*eA*e[5mC]*e[5mC]*dA*dG*dA*dA*dA*dA*dG*dT*dG*dA*eG*eA*eG*e[5mC]*eT) [compound 407932] | 55
3 | 407636 (antisense eG*e[5mC]*eA*eG*e[5mC]*d[5mC]*d[5mC]*dT*dG*dG*d[5mC]*d[5mC]*d[5mC]*d[5mC]*dA*eG*e[5mC]*eT*eG*eA) [compound 407636] | 75
4 | 407658 (antisense eG*e[5mC]*eT*eT*eG*d[5mC]*d[5mC]*dG*dG*dA*dG*dT*d[5mC]*dT*dG*eA*eG*eT*eG*eG) [compound 407658] | 16
5 | 407901 (antisense eT*eG*eG*eT*eG*dT*dT*dG*dA*dT*d[5mC]*dA*dG*dG*dG*eT*e[5mC]*e[5mC]*e[5mC]*e[5mC]) [compound 407901] | 89
6 | 407938 (antisense e[5mC]*eA*e[5mC]*e[5mC]*e[5mC]*dA*dG*d[5mC]*dG*dA*dA*dG*dG*dG*dA*eG*eA*eA*eA*eT) [compound 407938] | 60
7 | 407925 (antisense eG*eA*eA*eT*eA*dT*dA*dT*dG*dG*dG*dA*dT*dT*dT*eG*eG*eT*eG*e[5mC]) [compound 407925] | 64
8 | 407595 (antisense eT*e[5mC]*e[5mC]*eT*eG*dA*dG*dG*d[5mC]*d[5mC]*dT*dT*dA*dG*d[5mC]*eG*eA*e[5mC]*e[5mC]*e[5mC]) [compound 407595] | 71
9 | 407611 (antisense eT*e[5mC]*eT*e[5mC]*eA*d[5mC]*dA*dG*dT*dT*d[5mC]*d[5mC]*dG*dG*d[5mC]*e[5mC]*e[5mC]*eT*e[5mC]*eG) [compound 407611] | 82
10 | 407638 (antisense eG*e[5mC]*e[5mC]*eA*e[5mC]*dT*d[5mC]*dG*dA*dT*dG*dT*dA*d[5mC]*dT*eG*eG*eG*eA*eG) [compound 407638] | 0
11 | 407664 (antisense e[5mC]*eA*eG*eG*eG*d[5mC]*dG*dA*dG*dG*d[5mC]*dA*dA*d[5mC]*d[5mC]*e[5mC]*e[5mC]*eG*eT*eG) [compound 407664] | 70
12 | 407890 (antisense e[5mC]*eA*eG*eG*eG*dA*dG*d[5mC]*d[5mC]*d[5mC]*dG*dG*d[5mC]*d[5mC]*dG*e[5mC]*eA*eG*e[5mC]*eT) [compound 407890] | 60
13 | 407621 (antisense eA*e[5mC]*eA*eA*e[5mC]*dA*dG*dG*dA*d[5mC]*d[5mC]*dT*dG*d[5mC]*d[5mC]*eA*eT*eG*eG*eA) [compound 407621] | 62
14 | 407898 (antisense e[5mC]*e[5mC]*eA*eG*e[5mC]*dA*dG*dA*dG*dA*dG*dT*dA*d[5mC]*d[5mC]*e[5mC]*e[5mC]*eT*e[5mC]*eG) [compound 407898] | 49
15 | 407624 (antisense eG*eA*eG*eA*e[5mC]*d[5mC]*dA*d[5mC]*d[5mC]*d[5mC]*dA*dG*dA*dT*dG*eG*eT*eG*eT*eT) [compound 407624] | 73

same assay, conditions: Example 4; HepB3 cells, lipofectin, 50 nM, ~24 h, relative to untreated control

Row | Substance | % Inhibition (human Factor 7 mRNA) [%]
16 | 422194 (antisense e[5mC]*eT*eG*dA*dG*d[5mC]*dG*d[5mC]*dG*dG*dA*dA*dG*dA*dA*dG*dG*eG*eA*e[5mC]) [compound 422194] | 11
17 | 422193 (antisense eT*eG*eA*dG*d[5mC]*dG*d[5mC]*dG*dG*dA*dA*dG*dA*dA*dG*dG*dG*eA*e[5mC]*eG) [compound 422193] | 6
18 | 422272 (antisense eA*e[5mC]*dT*dG*dA*dG*d[5mC]*dG*d[5mC]*dG*dG*dA*dA*dG*dA*eA*eG*eG*eG*eA) [compound 422272] | 12

same assay, conditions: Example 6 microwalk, nucleobases 15098 to 15122 of SEQ ID NO: 1; HepB3, lipofectin, 50 nM, ~24 h

Row | Substance | % Inhibition (human Factor 7 mRNA) [%]
19 | 422212 (antisense eG*eA*e[5mC]*dA*dG*d[5mC]*dA*d[5mC]*dA*d[5mC]*dA*dT*dG*dG*dA*dG*dT*e[5mC]*eA*eG) [compound 422212] | 30
20 | 422210 (antisense e[5mC]*eA*eG*d[5mC]*dA*d[5mC]*dA*d[5mC]*dA*dT*dG*dG*dA*dG*dT*d[5mC]*dA*eG*e[5mC]*eA) [compound 422210] | 25

same assay, conditions: HepB3 cells, lipofectin, 50 nM antisense oligonucleotide, approximately 24 hours, primer probe set RTS 2927, relative to untreated control

Row | Substance | % Inhibition of human Factor 7 mRNA levels [%]
21 | 416432 (antisense eA*eG*e[5mC]*eA*e[5mC]*dT*dG*d[5mC]*dT*d[5mC]*d[5mC]*dT*d[5mC]*d[5mC]*dT*eT*eG*e[5mC]*eA*e[5mC]) [compound 416432] | 44
22 | 416536 (antisense e[5mC]*eG*eG*eG*eA*dA*dG*dG*d[5mC]*d[5mC]*dT*dG*d[5mC]*d[5mC]*d[5mC]*eT*eG*e[5mC]*eA*eG) [compound 416536] | 23
23 | 416556 (antisense eA*eT*eA*eG*e[5mC]*dT*dT*dT*dG*dA*dT*d[5mC]*d[5mC]*dA*dA*eT*eG*e[5mC]*eT*e[5mC]) [compound 416556] | 53
24 | 416490 (antisense eA*e[5mC]*eT*e[5mC]*eA*dG*d[5mC]*dA*dA*dG*dA*dG*dT*dG*d[5mC]*eA*eG*e[5mC]*eT*eT) [compound 416490] | 33
25 | 416422 (antisense eA*eG*e[5mC]*eG*eA*d[5mC]*d[5mC]*d[5mC]*d[5mC]*dG*d[5mC]*d[5mC]*dT*dG*d[5mC]*eA*eG*e[5mC]*e[5mC]*eA) [compound 416422] | 8
26 | 416513 (antisense e[5mC]*eT*eG*eA*eT*dG*dT*dG*dA*dA*dA*dA*d[5mC]*d[5mC]*dG*eG*e[5mC]*eA*eT*eG) [compound 416513] | 37
27 | 416521 (antisense e[5mC]*eA*e[5mC]*e[5mC]*e[5mC]*d[5mC]*dA*d[5mC]*d[5mC]*dA*dG*dG*dT*dT*dG*eT*eG*e[5mC]*eA*e[5mC]) [compound 416521] | 36
28 | 416469 (antisense eG*e[5mC]*eA*eG*e[5mC]*d[5mC]*dA*d[5mC]*dT*d[5mC]*dG*dA*dT*dG*dT*eA*e[5mC]*eT*eG*eG) [compound 416469] | 55
29 | 416447 (antisense e[5mC]*eA*eT*eG*eG*dA*dT*dA*dT*dT*d[5mC]*dA*dA*d[5mC]*dT*eG*eT*eG*eG*eG) [compound 416447] | 17
30 | 416553 (antisense eG*eG*eT*eT*e[5mC]*dT*d[5mC]*dT*dG*d[5mC]*dA*d[5mC]*dA*dG*dG*eG*eT*eA*eG*eA) [compound 416553] | 56
31 | 416505 (antisense eG*e[5mC]*eA*eG*eA*dT*dT*dT*dG*d[5mC]*dA*dT*d[5mC]*dA*dG*eA*eA*eA*eA*eG) [compound 416505] | 45
32 | 416459 (antisense eT*eG*eG*eT*e[5mC]*dA*dG*dT*dG*dA*dG*dG*dA*d[5mC]*d[5mC]*eA*e[5mC]*eG*eG*eG) [compound 416459] | 23
33 | 416454 (antisense e[5mC]*eG*eT*eG*e[5mC]*dT*d[5mC]*dG*d[5mC]*d[5mC]*d[5mC]*dA*dG*d[5mC]*dA*e[5mC]*e[5mC]*eG*e[5mC]*eG) [compound 416454] | 56
34 | 416512 (antisense eG*eA*e[5mC]*eG*eA*d[5mC]*d[5mC]*dT*dT*dT*dG*d[5mC]*dT*dG*dG*eG*eA*eG*eG*eA) [compound 416512] | 43

same assay, conditions: HepB3 cells; gapmers (5-10-5, 3-14-3, 2-13-5 MOE) targeted to nucleobases 4868 to 4899 of SEQ ID NO: 1

Row | Substance | % Inhibition of human Factor 7 mRNA levels [%]
35 | 422144 (antisense e[5mC]*e[5mC]*e[5mC]*eG*eA*dG*dT*dT*d[5mC]*dT*dG*d[5mC]*dA*dG*dG*eA*eG*e[5mC]*eG*eG) [compound 422144] | 58
36 | 422225 (antisense eA*eG*eG*dA*dG*d[5mC]*d[5mC]*d[5mC]*dG*dA*dG*dT*dT*d[5mC]*dT*dG*d[5mC]*eA*eG*eG) [compound 422225] | 56

same assay, conditions: HepB3 cells; gapmers targeted to nucleobases 11830 to 11869 of SEQ ID NO: 1 (Table 9)

Row | Substance | % Inhibition of human Factor 7 mRNA levels [%]
37 | 422164 (antisense eG*eA*eG*dA*d[5mC]*dA*dA*dT*dG*dG*dT*d[5mC]*dA*dG*dG*dG*d[5mC]*eT*eG*eG) [compound 422164] | 64
38 | 422092 (antisense eA*eT*eG*eG*eT*d[5mC]*dA*dG*dG*dG*d[5mC]*dT*dG*dG*dT*eT*eT*eT*eG*eG) [compound 422092] | 36
39 | 422168 (antisense eT*eG*eA*dG*dG*dA*dG*dA*d[5mC]*dA*dA*dT*dG*dG*dT*d[5mC]*dA*eG*eG*eG) [compound 422168] | 30
40 | 422100 (antisense eG*eA*eG*eG*eA*dG*dA*d[5mC]*dA*dA*dT*dG*dG*dT*d[5mC]*eA*eG*eG*eG*e[5mC]) [compound 422100] | 59
41 | 422097 (antisense eG*eA*eG*eA*e[5mC]*dA*dA*dT*dG*dG*dT*d[5mC]*dA*dG*dG*eG*e[5mC]*eT*eG*eG) [compound 422097] | 59

same assay, conditions: HepB3 cells; gapmers targeted to nucleobases 13760 to 13789 of SEQ ID NO: 1 (Table 10)

Row | Substance | % Inhibition of human Factor 7 mRNA levels [%]
42 | 422178 (antisense eA*e[5mC]*e[5mC]*d[5mC]*dG*d[5mC]*d[5mC]*dG*dG*d[5mC]*dT*d[5mC]*dT*dG*d[5mC]*dT*d[5mC]*eA*eT*e[5mC]) [compound 422178] | 37

same assay, conditions: HepB3 cells; gapmers targeted to nucleobases 14707 to 14732 of SEQ ID NO: 1 (Table 11)

Row | Substance | % Inhibition of human Factor 7 mRNA levels [%]
43 | 422205 (antisense eA*eG*e[5mC]*dA*dG*d[5mC]*d[5mC]*dT*dG*dA*dG*dG*d[5mC]*d[5mC]*dA*dG*d[5mC]*eA*eG*eA) [compound 422205] | 63
